Calls of active or inactive are those of the source. No cut-off for these calls is given here.
Tests used:
[1] = test system: Severe fever with thrombocytopenia syndrome virus; test: In vivo antiviral activity against SFTSV infected in mouse harboring IFNAR1tm1Agt assessed as improvement in lymphocytes percentage treated orally once daily for 7 days; assay type: functional, organism-based; conditions: dose 2.5-100 mg/kg, route po, time 7.0 day
[2] = test system: Severe fever with thrombocytopenia syndrome virus; test: In vivo antiviral activity against SFTSV infected in mouse harboring IFNAR1tm1Agt assessed as improvement in lymphocytes percentage at 300 mg/kg, po qd treated for 7 days relative to control; assay type: functional, organism-based; conditions: time 7.0 day

| SMILES | Activity [1] | Activity [2] |
| --- | --- | --- |
| CC(C)C(=O)OC[C@@]1(F)O[C@@H](n2ccc(=O)n(COC(=O)c3cccnc3)c2=O)[C@H](OC(=O)C(C)C)[C@@H]1OC(=O)C(C)C | Dose-dependent-effect | – |
| NC(=O)c1nc(F)cnc1O | – | Active |

From ChEMBL document CHEMBL6177980 (J Med Chem, 2025)
